In ChEMBL document CHEMBL5715935 (Int J Cancer, 2002):
The source made the active and inactive calls. The rule behind the calls is not given here.

Assays:
LoVo [1] = assay: Antitumor activity against human Lovo cells xenografted CD1 nude mouse assessed as relative tumor volume at 100 mg/kg, ip administered 3 times per day at 8 hrs intervals for 5 days; type: functional; settings: time 5 day
HCT-116 = assay: cells; settings: Homo sapiens, HCT-116, 72 h
MES-SA/Dx5 [2] = assay: Antitumor activity against human MES-SA/Dx5 cells xenografted CD1 nude mouse assessed as tumor volume at 500 mg/kg, po administered 3 times per day at 8 hrs intervals and measured on 11 day; type: functional, organism-based
[3] = Cytotoxicity against human IMR-90 cells assessed as inhibition of cell proliferation incubated for 72 hrs by MTT assay; type: toxicity, cell-based
NCI-H460 = assay: Cytotoxicity against p53 wild-type human NCI-H460 cells assessed as inhibition of cell proliferation incubated for 72 hrs by MTT assay; type: functional, cell-based; settings: NCI-H460, 72 h
LoVo [4] = assay: Induction of cell death in human LoVo cells assessed as S phase of the cell cycle at 20 uM incubated for 24 hrs by TUNEL staining based flow cytometry analysis; type: functional
MIA PaCa-2 [5] = assay: Cytotoxicity against p53 mutant human MIA PaCa-2 cells assessed as inhibition of cell proliferation incubated for 72 hrs by MTT assay; type: functional, cell-based; settings: MIA PaCa-2, 72 h
[6] = target: Protein kinase C (PKC) (Homo sapiens) (UniProt O94806+P41743+P17252+P05129+Q05655+P05771+Q05513+Q02156+P24723+Q15139+Q04759); assay: Inhibition of human PKC at 20 uM; type: protein assay
LoVo [7] = assay: Antitumor activity against human Lovo cells xenografted CD1 nude mouse assessed as low tumor volume at 100 mg/kg, ip administered 3 times per day at 8 hrs intervals for 24 days; type: functional, organism-based; settings: time 24.0 day
LoVo [8] = assay: Antitumor activity against human Lovo cells xenografted CD1 nude mouse assessed as low tumor volume at 100 mg/kg, ip administered 3 times per day at 8 hrs intervals for 19 days; type: functional, organism-based; settings: time 19.0 day
MES-SA = assay: Cytotoxicity against human MES-SA cells assessed as inhibition of cell proliferation incubated for 72 hrs by MTT assay; type: functional, cell-based
LoVo [9] = assay: Induction of cell death in human LoVo cells assessed as increase in total cell numbers at 20 uM incubated upto 24 hrs by TUNEL staining based flow cytometry analysis; type: functional
[10] = target: Mitogen-activated protein kinase 14 (Homo sapiens) (UniProt Q16539); assay: Inhibition of human SAPK2A using myelin as substrate at 20 uM in presence of gamma-32P-ATP by scintillation counter analysis
A498 = assay: Cytotoxicity against p53 wild-type human A498 cells assessed as inhibition of cell proliferation incubated for 72 hrs by MTT assay; type: functional, cell-based; settings: A498, 72 h
ACHN = assay: Cytotoxicity against p53 wild-type human ACHN cells assessed as inhibition of cell proliferation incubated for 72 hrs by MTT assay; type: functional, cell-based
ChaGo-K-1 = assay: Cytotoxicity against human ChaGo-K-1 cells assessed as inhibition of cell proliferation incubated for 72 hrs by MTT assay; type: functional, cell-based; settings: ChaGo-K-1, 72 h
DU-145 = assay: Cytotoxicity against p53 mutant human DU-145 cells assessed as inhibition of cell proliferation incubated for 72 hrs by MTT assay; type: functional, cell-based; settings: DU-145, 72 h
LoVo [11] = assay: Antitumor activity against human Lovo cells xenografted CD1 nude mouse assessed as reduction in tumor volume at 100 mg/kg, ip administered 3 times per day at 8 hrs intervals for 5 days relative to control; type: functional; parameters: scale not given: the % may be the effect or the level left; settings: time 5 day
LoVo [12] = assay: Antitumor activity against human Lovo cells xenografted CD1 nude mouse assessed as T/C ratio at 100 mg/kg, ip administered 3 times per day at 8 hrs intervals for 5 days relative to control; type: functional; settings: time 5 day
LoVo [13] = assay: Induction of cell death in human LoVo cells assessed as decrease in total cell numbers at 20 uM incubated for 48 hrs by TUNEL staining based flow cytometry analysis; type: functional
LoVo [14] = assay: Antitumor activity against human Lovo cells xenografted CD1 nude mouse assessed as low tumor volume at 100 mg/kg, ip administered 3 times per day at 8 hrs intervals for 32 days; type: functional, organism-based; settings: time 32.0 day
LoVo [15] = assay: Induction of cell death in human LoVo cells assessed as total cell numbers at 20 uM incubated after 8 hrs by TUNEL staining based flow cytometry analysis; type: functional
MES-SA/Dx5 [16] = assay: Antitumor activity against human MES-SA/Dx5 cells xenografted CD1 nude mouse assessed as tumor volume at 500 mg/kg, po administered 3 times per day at 8 hrs intervals and measured on 7 day; type: functional, organism-based
LoVo [17] = assay: Antitumor activity against human Lovo cells xenografted CD1 nude mouse assessed as low tumor volume at 100 mg/kg, ip administered 3 times per day at 8 hrs intervals for 16 days; type: functional, organism-based; settings: time 16.0 day
MES-SA/Dx5 [18] = assay: Antitumor activity against human MES-SA/Dx5 cells xenografted CD1 nude mouse assessed as time for tumor growth delay at 500 mg/kg, po administered 3 times per day at 8 hrs intervals for 4 days; type: functional; settings: time 4 day
MIA PaCa-2 [19] = assay: Cytotoxicity against human MIA PaCa-2 cells assessed as inhibition of cell proliferation incubated for 72 hrs by MTT assay; type: functional, cell-based; settings: MIA PaCa-2, 72 h
MES-SA/Dx5 [20] = assay: Antitumor activity against human MES-SA/Dx5 cells xenografted CD1 nude mouse assessed as T/C ratio at 200 mg/kg, po administered 3 times per day at 8 hrs intervals for 10 days and measured at day 11 relative to control; type: functional; settings: time 11 day
LoVo [21] = assay: Antitumor activity against human Lovo cells xenografted CD1 nude mouse assessed as time for tumor growth delay at 100 mg/kg, ip administered 3 times per day at 8 hrs intervals for 5 days; type: functional; settings: time 5 day
[22] = Cytotoxicity against human HS27 cells assessed as inhibition of cell proliferation incubated for 72 hrs by MTT assay; type: toxicity, cell-based
MES-SA/Dx5 [23] = assay: Antitumor activity against human MES-SA/Dx5 cells xenografted CD1 nude mouse assessed as tumor volume at 500 mg/kg, po administered 3 times per day at 8 hrs intervals and measured on 4 day; type: functional, organism-based
HepG2 = assay: Cytotoxicity against p53 wild-type human HepG2 cells assessed as inhibition of cell proliferation incubated for 72 hrs by MTT assay; type: functional, cell-based; settings: HepG2, 72 h
MIA PaCa-2 [24] = assay: Cytotoxicity against p53 wild-type human MIA PaCa-2 cells assessed as inhibition of cell proliferation incubated for 72 hrs by MTT assay; type: functional, cell-based; settings: MIA PaCa-2, 72 h
LoVo [25] = assay: Induction of cell death in human LoVo cells assessed as accumulation of cells in the cell cycle at 20 uM incubated for 24 hrs by PI staining based flow cytometry analysis; type: functional
MES-SA/Dx5 [26] = assay: Antitumor activity against human MES-SA/Dx5 cells xenografted CD1 nude mouse assessed as time for tumor growth delay at 200 mg/kg, po administered 3 times per day at 8 hrs intervals for 10 days; type: functional; settings: time 10 day
LoVo [27] = assay: Induction of cell death in human LoVo cells assessed as G1 phase of the cell cycle at 20 uM incubated for 24 hrs by TUNEL staining based flow cytometry analysis; type: functional
LoVo [28] = assay: Induction of cell death in human LoVo cells assessed as increase in the number of cells with a sub-G1 DNA content at 20 uM incubated for 24 hrs by PI staining based flow cytometry analysis; type: functional
LoVo [29] = assay: Induction of cell death in human LoVo cells assessed as G2/M phase of the cell cycle at 20 uM incubated for 24 hrs by TUNEL staining based flow cytometry analysis; type: functional
MES-SA/Dx5 [30] = assay: Antitumor activity against human MES-SA/Dx5 cells xenografted CD1 nude mouse assessed as reduction in tumor volume at 200 mg/kg, po administered 3 times per day at 8 hrs intervals and measured upto 16 days; type: functional, organism-based; settings: time <= 16.0 day
MES-SA/Dx5 [31] = assay: Antitumor activity against human MES-SA/Dx5 cells xenografted CD1 nude mouse assessed as T/C ratio at 500 mg/kg, po administered 3 times per day at 8 hrs intervals and measured at 11 day relative to control; type: functional
HT-1376 = assay: Cytotoxicity against p53 mutant human HT-1376 cells assessed as inhibition of cell proliferation incubated for 72 hrs by MTT assay; type: functional, cell-based; settings: HT-1376, 72 h
HCT-15 = assay: Cytotoxicity against p53 mutant human HCT-15 cells assessed as inhibition of cell proliferation incubated for 72 hrs by MTT assay; type: functional, cell-based; settings: HCT-15, 72 h
MES-SA/Dx5 [32] = assay: Cytotoxicity against human MES-SA/Dx5 cells assessed as inhibition of cell proliferation incubated for 72 hrs by MTT assay; type: functional, cell-based; settings: MES-SA/Dx5, 72 h
HT-29 = assay: Cytotoxicity against p53 mutant human HT-29 cells assessed as inhibition of cell proliferation incubated for 72 hrs by MTT assay; type: functional, cell-based; settings: HT-29, 72 h
A549 = assay: Cytotoxicity against p53 wild-type human A549 cells assessed as inhibition of cell proliferation incubated for 72 hrs by MTT assay; type: functional, cell-based; settings: A549, 72 h
LoVo [33] = assay: Induction of cell death in human LoVo cells assessed as sub-G1 phase of the cell cycle at 20 uM incubated for 24 hrs by TUNEL staining based flow cytometry analysis; type: functional
[34] = target: cAMP-dependent protein kinase (PKA) (Homo sapiens) (UniProt P22694+P17612+P22612); assay: Inhibition of human PKA at 20 uM; type: protein assay
LoVo [35] = assay: Cytotoxicity against p53 wild-type human LoVo cells assessed as inhibition of cell proliferation incubated for 72 hrs by MTT assay; type: functional, cell-based
NCI-H69 = assay: Cytotoxicity against p53 mutant human NCI-H69 cells assessed as inhibition of cell proliferation incubated for 72 hrs by MTT assay; type: functional, cell-based; settings: NCI-H69, 72 h

Chain of Mitogen-activated protein kinase 14 (Homo sapiens) (Q16539 whole entry): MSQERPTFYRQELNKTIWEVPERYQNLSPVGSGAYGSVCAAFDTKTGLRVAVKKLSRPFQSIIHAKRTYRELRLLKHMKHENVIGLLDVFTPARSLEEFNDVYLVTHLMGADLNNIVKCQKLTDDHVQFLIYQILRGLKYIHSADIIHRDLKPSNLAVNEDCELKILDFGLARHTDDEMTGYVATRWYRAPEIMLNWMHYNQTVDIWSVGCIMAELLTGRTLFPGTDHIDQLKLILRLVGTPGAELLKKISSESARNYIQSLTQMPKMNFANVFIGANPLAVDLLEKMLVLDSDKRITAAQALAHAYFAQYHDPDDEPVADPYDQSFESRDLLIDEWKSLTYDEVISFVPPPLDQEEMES

CC[C@H](CO)Nc1nc(NCc2ccccc2)c2ncn(C(C)C)c2n1 [SELICICLIB]
Activity (LoVo [1]): 4.8 | IC50 (HCT-116): 10.7 µM | Activity (MES-SA/Dx5 [2]): Active | IC50 at 72 h [3]: > 100 µM | IC50 (NCI-H460): 13.1 µM | Activity (LoVo [4]): Active | IC50 (MIA PaCa-2 [5]): 13.9 µM | inhibition [6]: inactive | Activity (LoVo [7]): Active | Activity (LoVo [8]): Active | IC50 (MES-SA): 11.9 µM | Activity (LoVo [9]): Active | inhibition [10]: inactive | IC50 (A498): 13.2 µM | IC50 (ACHN): 11.9 µM | IC50 (ChaGo-K-1): 30.2 µM | IC50 (DU-145): 18.8 µM | Activity (LoVo [11]): 44.8% | T/C (LoVo [12]): 58.3% | Activity (LoVo [13]): Active | Activity (LoVo [14]): Active | Activity (LoVo [15]): Active | Activity (MES-SA/Dx5 [16]): Active | Activity (LoVo [17]): Active | Time (MES-SA/Dx5 [18]): 1.7 days | IC50 (MIA PaCa-2 [19]): 15.2 µM | Activity (MES-SA/Dx5 [20]): 85.7% | Time (LoVo [21]): 1.4 days | IC50 at 72 h [22]: 22.2 µM | Activity (MES-SA/Dx5 [23]): Active | IC50 (HepG2): 11.3 µM | IC50 (MIA PaCa-2 [24]): 12 µM | Activity (LoVo [25]): inactive | Time (MES-SA/Dx5 [26]): 1.3 days | Activity (LoVo [27]): Active | Activity (LoVo [28]): Active | Activity (LoVo [29]): Active | Activity (MES-SA/Dx5 [30]): inactive | T/C (MES-SA/Dx5 [31]): 47.3% | IC50 (HT-1376): 18.4 µM | IC50 (HCT-15): 18.3 µM | IC50 (MES-SA/Dx5 [32]): 7.9 µM | IC50 (HT-29): 14.6 µM | IC50 (A549): 15.9 µM | Activity (LoVo [33]): Active | inhibition [34]: inactive | IC50 (LoVo [35]): 9.3 µM | IC50 (NCI-H69): 26 µM
